Measured values reported in ChEMBL document CHEMBL3351377, “Scaffold hopping towards potent and selective JAK3 inhibitors: discovery of novel C-5 substituted pyrrolopyrazines” (Bioorg Med Chem Lett, 2014).

Target: Tyrosine-protein kinase JAK1 (Homo sapiens, UniProt P23458)

## CC[C@H](CO)Nc1ncc(-c2cnc3[nH]ccc3n2)c(N[C@H]2CCCN(S(C)(=O)=O)C2)n1
  IC50: 287 nM

## CN1CCN(c2ncc(-c3cnc4[nH]ccc4n3)c(N[C@H]3CCCN(S(C)(=O)=O)C3)n2)CC1
  IC50: 189 nM
